Test results taken from ChEMBL document CHEMBL2157951, “Polysulfated xanthones: multipathway development of a new generation of dual anticoagulant/antiplatelet agents” (J Med Chem, 2011).
Activity calls are given as the source filed them. No cut-off for these calls is given here.

Key:
[1] = Stability in RPMI medium at 37 degC assessed as compound degradation incubated for 24 hrs; format: physicochemical
Plasma [2] = experiment: Anticoagulant activity in human plasma assessed as concentration required to double the prothrombin time by coagulometer analysis; format: functional
[3] = target: Coagulation factor X/antithrombin III (Homo sapiens) (UniProt P01008+P00742); experiment: Inhibition of human factor 10a/antithrombin 3 assessed as CBS 31.39 substrate hydrolysis at 1 x 10^-3 M by spectrophotometric analysis; format: protein-complex assay
[4] = target: Prothrombin (Homo sapiens) (UniProt P00734); experiment: Inhibition of human thrombin assessed as chromozym TH substrate hydrolysis at 1.9 x 10^-9 by spectrophotometric analysis
[5] = target: Prothrombin (Homo sapiens) (UniProt P00734); experiment: Inhibition of human thrombin assessed as chromozym TH substrate hydrolysis at 1 x 10^-4 to 1 x 10^-3 M by spectrophotometric analysis in presence of antithrombin-3
Coagulation factor X [6] = target: T1, Coagulation factor X (Homo sapiens, UniProt P00742); experiment: Inhibition of human factor 10a assessed as CBS 31.39 substrate hydrolysis by spectrophotometric analysis
Plasma [7] = experiment: Anticoagulant activity in human plasma assessed as effect on prothrombin time by coagulometer analysis; format: functional, cell-free
Blood [8] = experiment: Anticoagulant activity in human whole blood assessed as acceleration/kinetics of fibrin buildup and cross-linking at 3.12 x 10^-4 M by thromboelastography analysis in presence of intrinsic activator (reference value: 77 degree); format: functional
Coagulation factor X [9] = target: T1, Coagulation factor X; experiment: Inhibition of human factor 10a assessed as CBS 31.39 substrate hydrolysis at 1 x 10^-3 M by spectrophotometric analysis
Plasma [10] = experiment: Anticoagulant activity in human plasma assessed as concentration required to double the activated partial thromboplastin time by coagulometer analysis; format: functional
Plasma [11] = experiment: Anticoagulant activity in human plasma assessed as concentration required to double the thrombin time by coagulometer analysis; format: functional
[12] = target: Vitamin K-dependent protein C (Homo sapiens) (UniProt P04070); experiment: Inhibition of activated protein C in citreated human plasma using CBS 42.46 as substrate at 2.50 x 10^-4 M by chromogenic assay
[13] = target: Coagulation factor X/antithrombin III (Homo sapiens, UniProt P00742+P01008); experiment: Inhibition of human factor 10a/antithrombin 3 assessed as CBS 31.39 substrate hydrolysis by spectrophotometric analysis; format: protein-complex assay
Blood [14] = experiment: Anticoagulant activity in human whole blood assessed as period of time from initiation of the test to the initial fibrin formation at 3.12 x 10^-4 M by thromboelastography analysis in presence of intrinsic activator (reference value: 188 sec); format: functional
Plasma [15] = experiment: Reduction of prothrombin level in citreated human plasma by measuring prothrombin clotting time after mixing with factor 2 deficient plasma
Blood [16] = experiment: Anticoagulant activity in human whole blood assessed as time from beginning of clot formation until the amplitude of thromboelastogram reaches 20 mm at 3.12 x 10^-4 M by thromboelastography analysis in presence of intrinsic activator (reference value: 82 sec); format: functional
Plasma [17] = experiment: Anticoagulant activity in human plasma assessed as effect on activated partial thromboplastin time by coagulometer analysis; format: functional, cell-free
[18] = target: Vitamin K-dependent protein C (Homo sapiens) (UniProt P04070); experiment: Inhibition of activated protein C in citreated human plasma using CBS 42.46 as substrate at 2 x 10^-3 M by chromogenic assay
Plasma [19] = experiment: Anticoagulant activity in human plasma assessed as effect on thrombin time by coagulometer analysis; format: functional, cell-free
Blood [20] = experiment: Anticoagulant activity in human whole blood assessed as amplitude of the clot at 10 mins at 3.12 x 10^-4 M by thromboelastography analysis in presence of intrinsic activator (reference value: 57 mm); format: functional
Plasma [21] = experiment: Anticoagulant activity in human plasma assessed as effect on prothrombin time at 5 mM by coagulometer analysis relative to untreated control; format: functional
Plasma [22] = experiment: Anticoagulant activity in human plasma assessed as effect on activated partial thromboplastin time at 5 mM by coagulometer analysis relative to untreated control; format: functional
Plasma [23] = experiment: Anticoagulant activity in human plasma assessed as effect on thrombin time at 5 x 10^-3 M by coagulometer analysis; format: functional, cell-free
Mus musculus [24] = experiment: Anticoagulant activity in ip dosed mouse assessed as increase of thrombin time; format: functional, organism-based
Mus musculus [25] = experiment: Anticoagulant activity in mouse assessed as increase of activated thrombin time at 300 umol/kg, po; format: functional, organism-based
Coagulation factor X [26] = target: T1, Coagulation factor X; experiment: Non-competitive inhibition of human factor 10a using CBS 31.39 as substrate hydrolysis by Michaelis-Menten equation analysis
Mus musculus [27] = experiment: Hepatotoxicity in mouse assessed as GOT level in plasma at 300 umol/kg, ip after 120 mins (reference value: 108 U/L); format: toxicity, organism-based; details: in vivo, 2 h
[28] = Chemical stability of the compound in aqueous solution at 1.00 x 10^-2, 1.00 x 10^-4 and 1.00 x 10^-6 M at room temperature after 15 days by HPLC analysis; details: buffer, 360 h, 10 mM, 100 µM, 1 µM
Mus musculus [29] = experiment: Anticoagulant activity in mouse assessed as increase of thrombin time at 150 and 300 umol/kg, ip measured after 120 mins; format: functional, organism-based
Mus musculus [30] = experiment: Anticoagulant activity in mouse assessed as increase of activated partial thromboplastin time at 150 and 300 umol/kg, ip measured after 120 mins; format: functional, organism-based
Mus musculus [31] = experiment: Anticoagulant activity in mouse assessed as increase of activated partial thromboplastin time at 300 umol/kg, po; format: functional, organism-based
Mus musculus [32] = experiment: Anticoagulant activity in mouse assessed as increase of activated prothrombin time at 300 umol/kg, po; format: functional, organism-based
[33] = Chemical stability of the compound in aqueous solution at 1.00 x 10^-2, 1.00 x 10^-4 and 1.00 x 10^-6 M at 4 degC after 15 days by HPLC analysis; details: buffer, 360 h, 10 mM, 100 µM, 1 µM
Plasma [34] = experiment: Metabolic stability in human plasma after 3 hrs by HPLC analysis by HPLC analysis; format: ADME, cell-free
Mus musculus [35] = experiment: Anticoagulant activity in ip dosed mouse assessed as increase of activated partial thromboplastin time; format: functional, organism-based
[36] = Chemical stability of the compound in aqueous solution at 1.00 x 10^-2, 1.00 x 10^-4 and 1.00 x 10^-6 M at -20 degC after 15 days by HPLC analysis; details: buffer, 360 h, 10 mM, 100 µM, 1 µM
[37] = Chemical stability of the compound in sodium boric acid at pH 9.1 assessed as compound remaining at 1 x 10^-5 M after 120 mins by HPLC analysis; format: physicochemical; details: sodium boric acid buffer, read-out: Stability
[38] = Chemical stability of the compound in sodium acetate buffer at pH 5 assessed as compound remaining at 1 x 10^-5 M after 120 mins by HPLC analysis; format: physicochemical; details: read-out: Stability
[39] = Chemical stability of the compound in HCl buffer at pH 1 assessed as compound remaining at 1 x 10^-5 M after 120 mins by HPLC analysis; format: physicochemical; details: read-out: Stability
Mus musculus [40] = experiment: Anticoagulant activity in mouse assessed as increase of prothrombin time at 150 and 300 umol/kg, ip measured after 120 mins; format: functional, organism-based
Mus musculus [41] = experiment: Anticoagulant activity in ip dosed mouse assessed as increase of prothrombin time; format: functional, organism-based
[42] = Solubility of the compound in water; format: physicochemical; details: buffer
[43] = Chemical stability of the compound in phosphate buffered saline at pH 7.4 assessed as compound remaining at 1 x 10^-5 M after 120 mins by HPLC analysis; format: physicochemical; details: read-out: Stability
[44] = Chemical stability of the compound in potassium phosphate buffer at pH 6.7 assessed as compound remaining at 1 x 10^-5 M after 120 mins by HPLC analysis; format: physicochemical; details: read-out: Stability
Mus musculus [45] = experiment: Hepatotoxicity in mouse assessed as GPT level in plasma at 300 umol/kg, ip after 120 mins (reference value: 40 U/L); format: toxicity, organism-based; details: in vivo, 2 h

## O=S(=O)(O)Oc1ccc(/C=C/c2cc(O)cc(O)c2)cc1
[1]; 24 h
  Stability: Stable

## O=c1c2ccc(O[C@@H]3O[C@H](COS(=O)(=O)O)[C@@H](OS(=O)(=O)O)[C@H](OS(=O)(=O)O)[C@H]3OS(=O)(=O)O)cc2oc2cc(O[C@@H]3O[C@H](COS(=O)(=O)O)[C@@H](OS(=O)(=O)O)[C@H](OS(=O)(=O)O)[C@H]3OS(=O)(=O)O)ccc12
Plasma [2]
  2PT: 0.71 mM
[3]
  inhibition: 88.8%
[4]
  inhibition: 37%
[5]
  inhibition: inactive
Coagulation factor X [6]
  IC50: 740 µM
Plasma [7]
  Activity: Dose-dependent effect
Blood [8]
  Activity: 68 degree
Coagulation factor X [9]
  inhibition: 66.3%
Plasma [10]
  2aPTT: 0.06 mM
Plasma [11]
  Activity: 0.61 mM
[12]
  inhibition: inactive
[13]
  IC50: 190 µM
Blood [14]
  Time: 469 s
Plasma [15]
  Activity: Active
Blood [16]
  Time: 114 s
Plasma [17]
  Activity: Dose-dependent effect
[18]
  inhibition: > 50%
Plasma [19]
  Activity: Dose-dependent effect
Blood [20]
  Activity: 51 mm

## O=c1c2ccc(OS(=O)(=O)O)cc2oc2cc(OS(=O)(=O)O)ccc12
Plasma [2]
  2PT: >5 mM
Plasma [10]
  2aPTT: >5 mM
Plasma [21]
  fold change (FC): 1.1
Plasma [22]
  fold change (FC): 1.3
Plasma [23]
  Activity: inactive

## O=c1c2cc(O)c(O)cc2oc2cc(O)c([C@@H]3O[C@H](COS(=O)(=O)O)[C@@H](OS(=O)(=O)O)[C@H](OS(=O)(=O)O)[C@H]3OS(=O)(=O)O)c(O)c12
Plasma [7]
  Activity: Dose-dependent effect
Plasma [10]
  2aPTT: 0.39 mM
Plasma [17]
  Activity: Dose-dependent effect
Plasma [19]
  Activity: Dose-dependent effect

## O=c1c2cc(O)c(O)cc2oc2cc(O)c([C@@H]3O[C@H](CO)[C@@H](O)[C@H](O)[C@H]3O)c(O)c12
Plasma [21]
  Activity: inactive
Plasma [22]
  Activity: inactive
Plasma [23]
  Activity: inactive

## O=c1c2ccc(O[C@@H]3O[C@H](CO)[C@@H](O)[C@H](O)[C@H]3O)cc2oc2cc(O[C@@H]3O[C@H](CO)[C@@H](O)[C@H](O)[C@H]3O)ccc12
Plasma [21]
  Activity: inactive
Plasma [22]
  Activity: inactive
Plasma [23]
  Activity: inactive

## O=c1c2cc(OS(=O)(=O)O)c(OS(=O)(=O)O)cc2oc2cc(OS(=O)(=O)O)c([C@@H]3O[C@H](COS(=O)(=O)O)[C@@H](OS(=O)(=O)O)[C@H](OS(=O)(=O)O)[C@H]3OS(=O)(=O)O)c(O)c12 [MANGIFERIN HEPTASULFATE]
Mus musculus [24]
  Activity: Dose-dependent effect
Mus musculus [25]
  Activity: inactive
Coagulation factor X [26]
  inhibition: Active
Mus musculus [27]
  Activity: 125 U/L
[28]
  Stability: Stable
Mus musculus [29]
  Activity: Active
Plasma [2]
  2PT: 1.6 mM
[3]
  inhibition: 41%
[4]
  inhibition: 37%
Mus musculus [30]
  Activity: Active
[5]
  inhibition: inactive
Mus musculus [31]
  Activity: inactive
Coagulation factor X [6]
  IC50: 970 µM
Mus musculus [32]
  Activity: inactive
Plasma [7]
  Activity: Dose-dependent effect
[33]
  Stability: Stable
Blood [8]
  Activity: 73 degree
Coagulation factor X [9]
  inhibition: 52.1%
Plasma [10]
  2aPTT: 0.21 mM
Plasma [11]
  Activity: 1.96 mM
Plasma [34]
  Stability: Stable
Mus musculus [35]
  Activity: Dose-dependent effect
[12]
  inhibition: inactive
Blood [14]
  Time: 247 s
[36]
  Stability: Stable
[37]
  remaining at 2 h, 10 µM: > 85%
[38]
  remaining at 2 h, 10 µM: > 85%
Plasma [15]
  Activity: Active
Blood [16]
  Time: 86 s
[39]
  remaining at 2 h, 10 µM: > 85%
Mus musculus [40]
  Activity: Active
Mus musculus [41]
  Activity: Dose-dependent effect
[42]
  solubility: soluble
Plasma [17]
  Activity: Dose-dependent effect
[18]
  inhibition: > 50%
[43]
  remaining at 2 h, 10 µM: > 85%
Plasma [19]
  Activity: Dose-dependent effect
Blood [20]
  Activity: 50 mm
[44]
  remaining at 2 h, 10 µM: > 85%
Mus musculus [45]
  Activity: 46 U/L

## Oc1ccc(/C=C/c2cc(O)cc(O)c2)cc1 [RESVERATROL]
[1]; RPMI medium, read-out: Drug degradation
  degraded at 24 h: 50%
